According to patent publication US20070049593A1 (priority 2004, published 2007):
Where a name gives a salt, the structure may show the parent alone.

These compounds were tested against T1, HCV polymerase (Hepatitis C virus genotype 1b, UniProt P26663) (assay: biochemical).
T1 construct: a region encoding NS5B (J Virol 1991 March, 65(3), 1105-13, 544 amino acids after deletion of 47 amino acids on the C-terminal); 6xHis (C); made in house; host or cells: Escherichia coli
T1 sequence (P26663 2420-2963): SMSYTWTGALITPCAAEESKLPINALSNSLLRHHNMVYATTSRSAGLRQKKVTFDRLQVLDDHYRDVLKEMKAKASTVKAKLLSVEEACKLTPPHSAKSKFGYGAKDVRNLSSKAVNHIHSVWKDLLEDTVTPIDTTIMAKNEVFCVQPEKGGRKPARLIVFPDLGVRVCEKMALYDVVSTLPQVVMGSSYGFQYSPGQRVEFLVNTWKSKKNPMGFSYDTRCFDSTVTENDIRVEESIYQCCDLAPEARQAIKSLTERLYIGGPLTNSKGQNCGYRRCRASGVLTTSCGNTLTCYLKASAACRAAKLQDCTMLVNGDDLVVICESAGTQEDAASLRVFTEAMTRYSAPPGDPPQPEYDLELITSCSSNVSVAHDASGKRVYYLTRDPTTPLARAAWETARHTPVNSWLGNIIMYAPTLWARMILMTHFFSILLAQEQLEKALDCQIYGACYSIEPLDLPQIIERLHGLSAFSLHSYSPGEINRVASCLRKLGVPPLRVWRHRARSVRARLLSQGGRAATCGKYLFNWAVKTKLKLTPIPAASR
Design: species or system HCV BK strain
Outline: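 His-tagged NS5B (BK strain, 47-aa C-terminal deletion, E. coli-expressed) at 0.5 μg/ml copied 5 μg/ml run-off RNA bearing the HCV 3′ UTR with 2 μM UTP plus [3H]UTP, 50 μM ATP/GTP, in pH 7.5 Tris with 5 mM MgCl2, 25 °C, 90 min. TCA-precipitated RNA was counted and IC50 calculated.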
`CS(=O)(=O)c1ccc(N2CCOCC2)c(COc2ccc3c(c2)OCCn2c-3c(C3CCCCC3)c3ccc(C(=O)O)cc32)c1` [Example 2-12, 12-cyclohexyl-3-[5-methanesulfonyl-2-(morpholin-4-yl)benzyloxy]-6,7-dihydro-5-oxa-7a-azadibenzo[a,e]azulene-9-carboxylic acid monohydrochloride] showed an IC50 of less than 100 nM.
Work on `CS(=O)(=O)N1CCN(c2ccc(N3CCCC3=O)cc2COc2ccc3c(c2)OCCn2c-3c(C3CCCCC3)c3ccc(C(=O)O)cc32)CC1` [Example 2-13, 12-cyclohexyl-3-[2-(4-methanesulfonylpiperazin-1-yl)-5-(2-oxopyrrolidin-1-yl)benzyloxy]-6,7-dihydro-5-oxa-7a-azadibenzo[a,e]azulene-9-carboxylic acid monohydrochloride] yielded an IC50 of less than 100 nM.
`O=C(O)c1ccc2c(C3CCCCC3)c3n(c2c1)CCOc1cc(OCc2ccccc2N2CCOCC2)ccc1-3` [Example 2-14, 12-cyclohexyl-3-[2-(morpholin-4-yl)benzyloxy]-6,7-dihydro-5-oxa-7a-azadibenzo[a,e]azulene-9-carboxylic acid monohydrochloride] gave an IC50 of less than 100 nM.
For `CC(=O)Nc1ccc(N2CCOCC2)c(COc2ccc3c(c2)OCCn2c-3c(C3CCCCC3)c3ccc(C(=O)O)cc32)c1` [Example 2-15, 3-[5-acetylamino-2-(morpholin-4-yl)benzyloxy]-12-cyclohexyl-6,7-dihydro-5-oxa-7a-azadibenzo[a,e]azulene-9-carboxylic acid monohydrochloride], the IC50 was less than 100 nM.
Work on `CN(C)CC(=O)Nc1ccc(N2CCOCC2)c(COc2ccc3c(c2)OCCn2c-3c(C3CCCCC3)c3ccc(C(=O)O)cc32)c1` [Example 2-16, 12-cyclohexyl-3-[5-(2-dimethylaminoacetylamino)-2-(morpholin-4-yl)benzyloxy]-6,7-dihydro-5-oxa-7a-azadibenzo[a,e]azulene-9-carboxylic acid dihydrochloride] yielded an IC50 of less than 100 nM.
Compound `CS(=O)(=O)Nc1ccc(N2CCOCC2)c(COc2ccc3c(c2)OCCn2c-3c(C3CCCCC3)c3ccc(C(=O)O)cc32)c1` [Example 2-17, 12-cyclohexyl-3-[5-methanesulfonylamino-2-(morpholin-4-yl)benzyloxy]-6,7-dihydro-5-oxa-7a-azadibenzo[a,e]azulene-9-carboxylic acid monohydrochloride] has an IC50 of less than 100 nM.
Work on `CC(=O)N(C)c1ccc(N2CCOCC2)c(COc2ccc3c(c2)OCCn2c-3c(C3CCCCC3)c3ccc(C(=O)O)cc32)c1` [Example 2-18, 3-[5-(N-acetyl-N-methylamino)-2-(morpholin-4-yl)benzyloxy]-12-cyclohexyl-6,7-dihydro-5-oxa-7a-azadibenzo[a,e]azulene-9-carboxylic acid monohydrochloride] yielded an IC50 of less than 100 nM.
For `CN(c1ccc(N2CCOCC2)c(COc2ccc3c(c2)OCCn2c-3c(C3CCCCC3)c3ccc(C(=O)O)cc32)c1)S(C)(=O)=O` [Example 2-19, 12-cyclohexyl-3-[5-(N-methanesulfonyl-N-methylamino)-2-(morpholin-4-yl)benzyloxy]-6,7-dihydro-5-oxa-7a-azadibenzo[a,e]azulene-9-carboxylic acid monohydrochloride], the IC50 was less than 100 nM.
In the case of `O=C(O)c1ccc2c(C3CCCCC3)c3n(c2c1)CCOc1cc(Oc2ccccc2)ccc1-3` [Example 2-20, 12-cyclohexyl-3-phenoxy-6,7-dihydro-5-oxa-7a-azadibenzo[a,e]azulene-9-carboxylic acid], the IC50 is reported as less than 100 nM.
Work on `O=C(CN1CCOCC1)Nc1ccc(N2CCOCC2)c(COc2ccc3c(c2)OCCn2c-3c(C3CCCCC3)c3ccc(C(=O)O)cc32)c1` [Example 2-21, 12-cyclohexyl-3-{2-(morpholin-4-yl)-5-[2-(morpholin-4-yl)acetylamino]benzyloxy}-6,7-dihydro-5-oxa-7a-azadibenzo[a,e]azulene-9-carboxylic acid dihydrochloride] yielded an IC50 of less than 100 nM.
With `CN(C(=O)CN1CCOCC1)c1ccc(N2CCOCC2)c(COc2ccc3c(c2)OCCn2c-3c(C3CCCCC3)c3ccc(C(=O)O)cc32)c1` [Example 2-22, 12-cyclohexyl-3-[5-{N-methyl-N-[2-(morpholin-4-yl)acetyl]amino}-2-(morpholin-4-yl)benzyloxy]-6,7-dihydro-5-oxa-7a-azadibenzo[a,e]azulene-9-carboxylic acid dihydrochloride] the IC50 was less than 100 nM.
For `CN(C)CC(=O)N(C)c1ccc(N2CCOCC2)c(COc2ccc3c(c2)OCCn2c-3c(C3CCCCC3)c3ccc(C(=O)O)cc32)c1` [Example 2-23, 12-cyclohexyl-3-(5-[N-(2-dimethylaminoacetyl)-N-methylamino]-2-(morpholin-4-yl)benzyloxy]-6,7-dihydro-5-oxa-7a-azadibenzo[a,e]azulene-9-carboxylic acid dihydrochloride], the IC50 was less than 100 nM.
`COC(=O)N1CCCC(Oc2ccc3c(c2)OCCn2c-3c(C3CCCCC3)c3ccc(C(=O)O)cc32)C1` (centres unmarked) [Example 2-24, 12-cyclohexyl-3-(1-methoxycarbonylpiperidin-3-yloxy)-6,7-dihydro-5-oxa-7a-azadibenzo[a,e]azulene-9-carboxylic acid] was tested, and the IC50 was less than 100 nM.
With `COc1ccc(Oc2ccc3c(c2)OCCn2c-3c(C3CCCCC3)c3ccc(C(=O)O)cc32)cc1` [Example 2-25, 12-cyclohexyl-3-(4-methoxyphenoxy)-6,7-dihydro-5-oxa-7a-azadibenzo[a,e]azulene-9-carboxylic acid] the IC50 was less than 100 nM.
`O=C(O)c1ccc2c(C3CCCCC3)c3n(c2c1)CCOc1cc(Oc2cccc(Cl)c2)ccc1-3` [Example 2-26, 3-(3-chlorophenoxy)-12-cyclohexyl-6,7-dihydro-5-oxa-7a-azadibenzo[a,e]azulene-9-carboxylic acid] showed an IC50 of less than 100 nM.
`CN(C)C(=O)CN1CCN(c2ccc(N3CCCC3=O)cc2COc2ccc3c(c2)OCCn2c-3c(C3CCCCC3)c3ccc(C(=O)O)cc32)CC1` [Example 2-27, 12-cyclohexyl-3-[2-(4-dimethylcarbamoylmethylpiperazin-1-yl)-5-(2-oxopyrrolidin-1-yl)benzyloxy]-6,7-dihydro-5-oxa-7a-azadibenzo[a,e]azulene-9-carboxylic acid dihydrochloride] showed an IC50 of less than 100 nM.
`CCN1CCN(c2ccc(N3CCCC3=O)cc2COc2ccc3c(c2)OCCn2c-3c(C3CCCCC3)c3ccc(C(=O)O)cc32)CC1` [Example 2-28, 12-cyclohexyl-3-[2-(4-ethylpiperazin-1-yl)-5-(2-oxopyrrolidin-1-yl)benzyloxy]-6,7-dihydro-5-oxa-7a-azadibenzo[a,e]azulene-9-carboxylic acid dihydrochloride] showed an IC50 of less than 100 nM.
`O=C(O)c1ccc2c(C3CCCCC3)c3n(c2c1)CCOc1cc(Oc2cccnc2)ccc1-3` [Example 2-29, 12-cyclohexyl-3-(pyridin-3-yloxy)-6,7-dihydro-5-oxa-7a-azadibenzo[a,e]azulene-9-carboxylic acid monohydrochloride] showed an IC50 of less than 100 nM.
With `O=C(O)c1ccc2c(C3CCCCC3)c3n(c2c1)CCOc1cc(Oc2ccccc2Cl)ccc1-3` [Example 2-30, 3-(2-chlorophenoxy)-12-cyclohexyl-6,7-dihydro-5-oxa-7a-azadibenzo[a,e]azulene-9-carboxylic acid] the IC50 was less than 100 nM.
Compound `O=C(O)c1ccc2c(C3CCCCC3)c3n(c2c1)CCOc1cc(Oc2ccc(Cl)cc2)ccc1-3` [Example 2-31, 3-(4-chlorophenoxy)-12-cyclohexyl-6,7-dihydro-5-oxa-7a-azadibenzo[a,e]azulene-9-carboxylic acid] has an IC50 of less than 100 nM.
